Source: patent US20260364181A1, “AKR1C3 Targeted Heterobifunctional Small Molecule Proteolysis Targeting Chimeras” (BOARD OF REGENTS OF THE UNIVERSITY OF NEBRASKA, priority 2022, published 2026)

Assays:
[1] = test system: AKR1C1/C2; assay: AKR1C1/C2 protein degradation in 22Rv1 prostate cancer cells (Western blot); format: cell-based
Description: Protein Expression via Western Blot. 22Rv1 cells were seeded in a 6-well plate and incubated overnight. Next day, the cells were treated with varying concentrations of 6 (1 and 10 μM) and 5 (0.5, 1, 10, 50, 100, 250, and 500 nM; 1, 10, and 50 μM) for 24 hours and 5 (1 and 10 nM) at different time points (0, 2, 4, 6, 12, 16, 24, 48, and 72 h). Whole cell lysates were extracted in RIPA lysis buffer containing protease inhibitor and EDTA (Fisher Scientific, PI78440). Protein concentrations in each sample was estimated following BCA assay (Pierce™ BCA protein assay kit, Fisher Scientific, PI23227) as per the manufacturer's protocol. Proteins were standardized using RIPA lysis buffer with Laemelli SDS sample buffer (Thermo Scientific, AAJ61337AC) and heated at 1000C for 15 minutes. The proteins were resolved on a 4-12% premade gel (Invitrogen, NW04120BOX) at 60-90 V in 20× Bolt™ MES SDS running buffer (Fisher Scientific, B000202) and transferred onto a nitrocellulose membrane (Invitrogen, IB23001) using iBlot 2. The membranes were blocked with 2.5% non-fat dry milk (Bio-Rad, 1706404) for 1 h, and the membrane was incubated overnight on a rocking platform at 4 °C with the desired primary antibodies against AKR1C3 (mouse mAb, 1:200, Sigma, A6229), AKR1C1/C2 (rabbit mAb, 1:500, Abcam, ab179448), ARv7 (rabbit mAb, 1:500, Abcam, ab198394) and actin (mouse mAb, 1:1,000, ThermoFisher, MA5-11869). The membranes were washed three times, 10 minutes each, with 1×Tris-buffered saline (TBST, Bio-Rad, 1706435) in 0.1% Tween 20, on a rocking platform wherein they were incubated with rabbit anti-mouse IgG (ThermoFisher, 31450) or goat anti-rabbit IgG (Jackson ImmunoResearch, 111-035-003) secondary antibody (1:1,000) horseradish peroxidase conjugate for 1 hour. […] Bands were quantified by densitometry using ImageJ software and fold change in AKR1C3, AKR1C1/C2, and ARv7 protein expression was determined based on actin controls. […]

[2] = molecular target: T1, AKR1C3 (Homo sapiens, UniProt P42330); assay: AKR1C3 protein degradation in 22Rv1 prostate cancer cells (Western blot); format: cell-based; set-up: 22Rv1 prostate cancer cells that express high levels of AKR1C3; host or cells: 22Rv1
T1 sequence (P42330 1-323): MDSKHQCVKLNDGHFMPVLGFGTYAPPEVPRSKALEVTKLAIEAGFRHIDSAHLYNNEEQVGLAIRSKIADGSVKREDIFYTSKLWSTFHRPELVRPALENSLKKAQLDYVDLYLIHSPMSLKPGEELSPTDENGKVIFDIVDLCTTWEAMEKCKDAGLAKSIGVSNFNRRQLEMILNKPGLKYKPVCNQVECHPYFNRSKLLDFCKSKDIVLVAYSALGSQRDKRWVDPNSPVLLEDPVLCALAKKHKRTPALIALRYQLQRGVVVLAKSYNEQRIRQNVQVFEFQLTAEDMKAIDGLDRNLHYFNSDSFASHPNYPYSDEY
Description: Protein Expression via Western Blot. 22Rv1 cells were seeded in a 6-well plate and incubated overnight. Next day, the cells were treated with varying concentrations of 6 (1 and 10 μM) and 5 (0.5, 1, 10, 50, 100, 250, and 500 nM; 1, 10, and 50 μM) for 24 hours and 5 (1 and 10 nM) at different time points (0, 2, 4, 6, 12, 16, 24, 48, and 72 h). Whole cell lysates were extracted in RIPA lysis buffer containing protease inhibitor and EDTA (Fisher Scientific, PI78440). Protein concentrations in each sample was estimated following BCA assay (Pierce™ BCA protein assay kit, Fisher Scientific, PI23227) as per the manufacturer's protocol. Proteins were standardized using RIPA lysis buffer with Laemelli SDS sample buffer (Thermo Scientific, AAJ61337AC) and heated at 1000C for 15 minutes. The proteins were resolved on a 4-12% premade gel (Invitrogen, NW04120BOX) at 60-90 V in 20× Bolt™ MES SDS running buffer (Fisher Scientific, B000202) and transferred onto a nitrocellulose membrane (Invitrogen, IB23001) using iBlot 2. The membranes were blocked with 2.5% non-fat dry milk (Bio-Rad, 1706404) for 1 h, and the membrane was incubated overnight on a rocking platform at 4 °C with the desired primary antibodies against AKR1C3 (mouse mAb, 1:200, Sigma, A6229), AKR1C1/C2 (rabbit mAb, 1:500, Abcam, ab179448), ARv7 (rabbit mAb, 1:500, Abcam, ab198394) and actin (mouse mAb, 1:1,000, ThermoFisher, MA5-11869). The membranes were washed three times, 10 minutes each, with 1×Tris-buffered saline (TBST, Bio-Rad, 1706435) in 0.1% Tween 20, on a rocking platform wherein they were incubated with rabbit anti-mouse IgG (ThermoFisher, 31450) or goat anti-rabbit IgG (Jackson ImmunoResearch, 111-035-003) secondary antibody (1:1,000) horseradish peroxidase conjugate for 1 hour. The membranes were again washed three times with 1×TBST, upon which they were exposed to LI-COR WesternSure PREMIUM chemiluminescent substrate (Fisher Scientific, 50-489-552) and developed in a dark room with Konica Minolta equipment. Bands were quantified by densitometry using ImageJ software and fold change in AKR1C3, AKR1C1/C2, and ARv7 protein expression was determined based on actin controls. […]
The AKR1C3 degradation effect of PROTAC 5 was screened across a range of concentrations to identify a suitable treatment protocol. 22Rv1 cells were treated with increasing concentrations of […], DMSO or lenalidomide 6 at 1 μM and 10 μM for 24 hours, and the degradation profile was determined by Western blot analysis with antibody for AKR1C3.

DC50 ([1]; 72 hours, read-out: AKR1C1/C2 DC50 (half-maximal degradation concentration)): 49 nM
mean AKR1C3 degradation ([2]; 0.5 nM, 24 h, in words): no degradation
time course of AKR1C3 levels ([2]; 1 nM, 24 through 72 hours post-treatment, in words): time-dependent decrease in AKR1C3 levels
onset of decrease in AKR1C3 levels ([2]; 1 nM, post-treatment): 24 h
degradation of AKR1C3 (in words) ([2]; 10 nM, 0-72 h): significant degradation
AKR1C3 degradation after proteasome inhibitor pretreatment ([2]; 10 nM, 2 hour pretreatment with MG132 (3 μM), in words): effectively blocked
AKR1C3 degradation compared with Compound 3 ([2]; 10 nM, 72 hour incubation, in words): outperformed Compound 3
onset of AKR1C3 degradation ([2]; 10 nM, post-treatment): 4 h
AKR1C3 expression ([2]; 1-50 μM, 24 h, in words): increased AKR1C3 expression
Dmax at 0.01 µM ([2]; 22Rv1, 10 nM, 72 hours, read-out: maximal degradation of AKR1C3): ~75%
AKR1C3 expression ([2]; 100-500 nM, 24 h, in words): increased AKR1C3 expression
SMILES: O=C(O)/C=C/c1cc(C(=O)NCc2ccc(OCc3cn(CCOCCOCC(=O)Nc4cccc5c4CN(C4CCC(=O)NC4=O)C5=O)nn3)cc2)cc(-c2ccccc2)c1 (centres unmarked) [Compound IA, (E)-3-(5-((4-((1-(2-(2-(2-((2-(2,6-dioxopiperidin-3-yl)-1-oxoisoindolin-4-yl)amino)-2-oxoethoxy)ethoxy)ethyl)-1H-1,2,3-triazol-4-yl)methoxy)benzyl)carbamoyl)-[1,1 ? biphenyl]-3-yl)acrylic acid]
degradation of AKR1C1/C2 compared with AKR1C3 ([1]; 10 nM, in words): to a lesser extent than AKR1C3
degradation of AKR1C1/C2 (in words) ([1]; 10 nM, time-dependent): trend of degradation of AKR1C1/C2 in a time-dependent manner
AKR1C3 protein expression ([2]; 10 nM, 4 hours of treatment, in words): effectively reduced AKR1C3 protein expression
